Measured values from publication PMC9367672, “In vitro differences in toddalolactone metabolism in various species and its effect on cytochrome P450 expression” (Pharmaceutical Biology, 2022).

Columns and labels:
HLMs = assay: Chemical inhibition assay: formation of P4 from toddalolactone in HLMs; type: in vitro ADME, human; settings: HLMs with toddalolactone and NADPH-generating system; ketoconazole 1 μM, clobetasol propionate 1.8 μM, quinidine 10 μM; vs no inhibitor
Method: All incubation assays were completed in triplicate. The data are presented as mean ± standard deviation (SD).
Specific inhibitors for P450 isoforms were used to explore the contribution of CYP isoforms to the biotransformation of toddalolactone. […] In brief, toddalolactone was incubated with HLMs and an NADPH-generating system in the presence and absence (control) of the aforementioned specific inhibitors.

CYP3A5 = CYP3A5 (Homo sapiens, UniProt P20815); design: purchased Corning Life Sciences (Corning, MA); host or cells: Saccharomyces cerevisiae; method as in Wright et al. [2020]; settings: at 1.8 μM; ref Wright et al. [2020]; cited from earlier work
[1] = substrate: COc1cc2oc(=O)ccc2c(OC)c1C[C@@H](O)C(C)(C)O; assay: cells, lysate or membranes named; settings: P4 formation, toddalolactone 1–200 μM, pH 7.4, 37.0 °C
Method: The CYP reaction system (200 μL) consisted of 0.1 M potassium phosphate buffer (pH 7.4), an NADPH-generating system (1 mM NADPH, 10 mM G-6-P, 1 unit/mL G-6-PD, 4 mM MgCl2), and liver microsomes or recombinant human microsomes (supersomes). Each of the in vitro enzymatic assays using liver microsomes was linear with respect to incubation time and amount of protein. After a pre-incubation at 37 °C for 3 min, the reactions were initiated by adding NADP^+. After incubating for 60 min, the reactions were quenched by adding 200 μL of ice-cold acetonitrile. Samples were centrifuged at 18,000 g for 15 min at 4 °C and 10 μL of supernatant was analyzed using an HPLC system. NADPH or CYP enzyme sources were not used in the control group to ensure that the metabolic reactions were CYP- and NADPH-dependent. All incubation assays were completed in triplicate. The data are presented as mean ± standard deviation (SD).
The enzyme kinetics of toddalolactone in oxidative metabolism and glucuronidation were determined by incubating liver microsomes (0.2 mg/mL) or CYPs (15 nM) with different concentrations of toddalolactone (1–200 μM). The kinetic parameters including Km and Vmax were obtained by fitting the experimental data to the Michaelis–Menten equation (Equation (1)), biphasic kinetics equation (Equation (2)), or substrate inhibition equation (Equation (3)) (He et al. [2018]), and the results were graphically represented on Eadie–Hofstee plots. The in vitro intrinsic clearance (CLint) was calculated based on the Vmax/Km ratio. Metabolites were quantified using the standard curve for toddalolactone because of the absence of metabolite standards. All incubations were repeated in three independent experiments. Kinetic constants were expressed with mean ± SD: (1) V=Vmax×[S]/Km+[S] (2) V=Vmax1×[S]/Ks1+[S]+Vmax2×[S]/Ks2+[S] […]

Molecule: CCC(=O)O[C@]1(C(=O)CCl)[C@@H](C)C[C@H]2[C@@H]3CCC4=CC(=O)C=C[C@]4(C)[C@@]3(F)[C@@H](O)C[C@@]21C [clobetasol propionate]
- inhibition of formation of P4 (HLMs): ~40%
- inhibition of CYP3A5 (CYP3A5): 90%

B1: CYP3A5 (Homo sapiens) (protein)
chain: MDLIPNLAVETWLLLAVSLVLLYLYGTRTHGLFKRLGIPGPTPLPLLGNVLSYRQGLWKFDTECYKKYGKMWGTYEGQLPVLAITDPDVIRTVLVKECYSVFTNRRSLGPVGFMKSAISLAEDEEWKRIRSLLSPTFTSGKLKEMFPIIAQYGDVLVRNLRREAEKGKPVTLKDIFGAYSMDVITGTSFGVNIDSLNNPQDPFVESTKKFLKFGFLDPLFLSIILFPFLTPVFEALNVSLFPKDTINFLSKSVNRMKKSRLNDKQKHRLDFLQLMIDSQNSKETESHKALSDLELAAQSIIFIFAGYETTSSVLSFTLYELATHPDVQQKLQKEIDAVLPNKAPPTYDAVVQMEYLDMVVNETLRLFPVAIRLERTCKKDVEINGVFIPKGSMVVIPTYALHHDPKYWTEPEEFRPERFSKKKDSIDPYIYTPFGTGPRNCIGMRFALMNMKLALIRVLQNFSFKPCKETQIPLKLDTQGLLQPEKPIVLKVDSRDGTLSGE
- kcat ([1]; other: recombinant CYP3A5 (15 nM)): 0.68 ± 0.04 pmol/min/nmol CYP

B2: CYP1A1 (Homo sapiens) (protein)
chain: MLFPISMSATEFLLASVIFCLVFWVIRASRPQVPKGLKNPPGPWGWPLIGHMLTLGKNPHLALSRMSQQYGDVLQIRIGSTPVVVLSGLDTIRQALVRQGDDFKGRPDLYTFTLISNGQSMSFSPDSGPVWAARRRLAQNGLKSFSIASDPASSTSCYLEEHVSKEAEVLISTLQELMAGPGHFNPYRYVVVSVTNVICAICFGRRYDHNHQELLSLVNLNNNFGEVVGSGNPADFIPILRYLPNPSLNAFKDLNEKFYSFMQKMVKEHYKTFEKGHIRDITDSLIEHCQEKQLDENANVQLSDEKIINIVLDLFGAGFDTVTTAISWSLMYLVMNPRVQRKIQEELDTVIGRSRRPRLSDRSHLPYMEAFILETFRHSSFVPFTIPHSTTRDTSLKGFYIPKGRCVFVNQWQINHDQKLWVNPSEFLPERFLTPDGAIDKVLSEKVIIFGMGKRKCIGETIARWEVFLFLAILLQRVEFSVPLGVKVDMTPIYGLTMKHACCEHFQMQLRS
- kcat ([1]; other: recombinant CYP1A1 (15 nM)): 0.76 ± 0.03 pmol/min/nmol CYP
